Assay results as given in patent US20230310428A1, “EGFR INHIBITOR AND PREPARATION METHOD AND USE THEREOF” (HONGYUN BIOTECH CO., LTD., priority 2020, published 2023).

How the values were obtained:
Assay in all cases: Growth inhibitory activity of compounds on BaF3 cell lines stably transfected with kinase (MTS, 48 h)
Format in all cases: cell-based
[1] = target: T1, various mutants of kinase EGFR (BaF3 cell lines stably transfected with kinase) (Homo sapiens, UniProt P00533, C797S/L858R/T790M); conditions: BaF3 cells stably transfected with EGFR L858R/T790M/C797S, read-out: IC50, growth inhibition, L858R/T790M/C797S
T1 construct: expressed in transfected cells; host or cells: BaF3
Experimental: (§1) The activity of compounds against various mutants of kinase EGFR was evaluated by their effect of inhibiting growth of BaF3 cell lines stably transfected with kinase. The specific test method was given as follows:
(§2) 1) Culture medium: DMEM (Dulbecco’s modified eagle medium) or RPMI 1640 (containing 10% fetal bovine serum, 100 µg/mL ampicillin, 100 µg/mL streptomycin).
(§3) 2) Reagent: MTS reaction solution (containing 2 mg/mL of MTS [3-(4,5-dimethylthiazol-2-yl)-5-(3-carboxymethoxyphenyl)-2-(4-sulfophenyl)-2H-tetrazoliu m, inner Salt]; 100 µg/mL of PES ([…])).
(§4) 3) Compound test: cells were incubated into a 96-well culture plate, the volume of cytosol was 90 µL, and then 10 µL of the compound at each gradient concentration was added. That is, the highest concentration was 10 µM, which was diluted stepwise by ⅓, and 8 concentration points were set in total; 0.1% DMSO (dimethyl sulfoxide) was contained in the system. The cell plate with uniformly mixed compound was cultured in a cell culture incubator (37° C.; 5% CO2) for 48 h, then 20 µL of MTS reaction solution was added, uniformly mixed and incubated in the cell culture incubator (37° C.; 5% CO2) for 1-4 h. OD values at 490 nm were measured by a microplate reader (VARIOSKAN FLASH, Thermo). Two parallels were set in each group of experiments, with 0.1% (a final concentration) DMSO as a negative control, and a culture medium without cells and compounds as a blank control. The cell growth inhibition rate was calculated by the following formula: […]
(§5) 4) IC50 calculation: The semi-inhibitory concentration of the compounds acting on cells was calculated using GradPad Prism 5 software according to the measured cell growth inhibition rate.

[2] = target: T2, various mutants of kinase EGFR (BaF3 cell lines stably transfected with kinase) (Homo sapiens, UniProt P00533, T790M, form not given); conditions: BaF3 cells stably transfected with EGFR Δ19Del/T790M, read-out: IC50, growth inhibition, Δ19Del/T790M
T2 construct: other: BaF3 cells stably transfected with EGFR Δ19Del/T790M; MTS, 48 h; other: BaF3 cell line stably transfected with EGFR Δ19Del/T790M; MTS, 48
T2 sequence (P00533 with tags, fused parts or gaps DEL746-750/T790M, form open): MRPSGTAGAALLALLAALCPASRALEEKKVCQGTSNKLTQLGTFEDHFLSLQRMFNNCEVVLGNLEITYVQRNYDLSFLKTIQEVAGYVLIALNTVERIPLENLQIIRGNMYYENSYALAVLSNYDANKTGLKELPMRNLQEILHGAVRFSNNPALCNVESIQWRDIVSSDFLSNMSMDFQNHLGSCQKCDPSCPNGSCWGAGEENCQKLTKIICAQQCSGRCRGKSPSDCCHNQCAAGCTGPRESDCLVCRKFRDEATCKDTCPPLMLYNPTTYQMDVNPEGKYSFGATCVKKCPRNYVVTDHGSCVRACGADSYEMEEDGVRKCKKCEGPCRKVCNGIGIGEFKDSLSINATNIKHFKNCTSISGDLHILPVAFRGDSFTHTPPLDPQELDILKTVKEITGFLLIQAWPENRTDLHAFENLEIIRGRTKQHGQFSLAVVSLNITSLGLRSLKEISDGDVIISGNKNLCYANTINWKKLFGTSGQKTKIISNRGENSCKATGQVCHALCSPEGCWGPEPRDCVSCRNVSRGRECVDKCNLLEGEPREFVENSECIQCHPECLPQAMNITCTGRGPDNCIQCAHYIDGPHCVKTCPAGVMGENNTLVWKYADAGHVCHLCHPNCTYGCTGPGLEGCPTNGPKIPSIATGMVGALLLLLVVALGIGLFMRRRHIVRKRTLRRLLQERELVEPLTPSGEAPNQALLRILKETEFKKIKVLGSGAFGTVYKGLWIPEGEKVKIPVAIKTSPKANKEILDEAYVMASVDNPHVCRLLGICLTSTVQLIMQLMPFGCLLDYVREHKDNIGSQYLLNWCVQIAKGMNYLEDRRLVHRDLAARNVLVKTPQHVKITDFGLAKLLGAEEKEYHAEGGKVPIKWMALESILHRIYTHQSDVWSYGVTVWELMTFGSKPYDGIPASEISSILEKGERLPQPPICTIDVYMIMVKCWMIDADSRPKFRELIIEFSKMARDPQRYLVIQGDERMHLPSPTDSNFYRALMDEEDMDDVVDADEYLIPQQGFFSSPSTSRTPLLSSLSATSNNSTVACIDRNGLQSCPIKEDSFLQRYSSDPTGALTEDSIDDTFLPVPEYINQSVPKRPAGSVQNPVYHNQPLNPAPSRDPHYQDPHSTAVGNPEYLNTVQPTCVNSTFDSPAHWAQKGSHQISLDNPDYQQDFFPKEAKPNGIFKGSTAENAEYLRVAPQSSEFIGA
Experimental: as §1, §2, §3, §4, §5

[3] = target: T3, various mutants of kinase EGFR (BaF3 cell lines stably transfected with kinase) (Homo sapiens, UniProt P00533, T790M/C797S, form not given); conditions: BaF3 cells stably transfected with EGFR Δ19Del/T790M/C797S, read-out: IC50, growth inhibition, Δ19Del/T790M/C797S
T3 construct: other: BaF3 cells stably transfected with EGFR Δ19Del/T790M/C797S; MTS, 48; other: BaF3 cell line stably transfected with EGFR Δ19Del/T790M/C7
Experimental: as §1, §2, §3, §4, §5

[4] = target: T4, various mutants of kinase EGFR (BaF3 cell lines stably transfected with kinase) (Homo sapiens, UniProt P00533); conditions: BaF3 cells stably transfected with EGFR Δ19Del, read-out: IC50, growth inhibition, Δ19Del
T4 construct: other: BaF3 cells stably transfected with EGFR Δ19Del; MTS, 48 h; other: BaF3 cell line stably transfected with EGFR Δ19Del
T4 sequence (P00533 with tags, fused parts or gaps DEL746-750): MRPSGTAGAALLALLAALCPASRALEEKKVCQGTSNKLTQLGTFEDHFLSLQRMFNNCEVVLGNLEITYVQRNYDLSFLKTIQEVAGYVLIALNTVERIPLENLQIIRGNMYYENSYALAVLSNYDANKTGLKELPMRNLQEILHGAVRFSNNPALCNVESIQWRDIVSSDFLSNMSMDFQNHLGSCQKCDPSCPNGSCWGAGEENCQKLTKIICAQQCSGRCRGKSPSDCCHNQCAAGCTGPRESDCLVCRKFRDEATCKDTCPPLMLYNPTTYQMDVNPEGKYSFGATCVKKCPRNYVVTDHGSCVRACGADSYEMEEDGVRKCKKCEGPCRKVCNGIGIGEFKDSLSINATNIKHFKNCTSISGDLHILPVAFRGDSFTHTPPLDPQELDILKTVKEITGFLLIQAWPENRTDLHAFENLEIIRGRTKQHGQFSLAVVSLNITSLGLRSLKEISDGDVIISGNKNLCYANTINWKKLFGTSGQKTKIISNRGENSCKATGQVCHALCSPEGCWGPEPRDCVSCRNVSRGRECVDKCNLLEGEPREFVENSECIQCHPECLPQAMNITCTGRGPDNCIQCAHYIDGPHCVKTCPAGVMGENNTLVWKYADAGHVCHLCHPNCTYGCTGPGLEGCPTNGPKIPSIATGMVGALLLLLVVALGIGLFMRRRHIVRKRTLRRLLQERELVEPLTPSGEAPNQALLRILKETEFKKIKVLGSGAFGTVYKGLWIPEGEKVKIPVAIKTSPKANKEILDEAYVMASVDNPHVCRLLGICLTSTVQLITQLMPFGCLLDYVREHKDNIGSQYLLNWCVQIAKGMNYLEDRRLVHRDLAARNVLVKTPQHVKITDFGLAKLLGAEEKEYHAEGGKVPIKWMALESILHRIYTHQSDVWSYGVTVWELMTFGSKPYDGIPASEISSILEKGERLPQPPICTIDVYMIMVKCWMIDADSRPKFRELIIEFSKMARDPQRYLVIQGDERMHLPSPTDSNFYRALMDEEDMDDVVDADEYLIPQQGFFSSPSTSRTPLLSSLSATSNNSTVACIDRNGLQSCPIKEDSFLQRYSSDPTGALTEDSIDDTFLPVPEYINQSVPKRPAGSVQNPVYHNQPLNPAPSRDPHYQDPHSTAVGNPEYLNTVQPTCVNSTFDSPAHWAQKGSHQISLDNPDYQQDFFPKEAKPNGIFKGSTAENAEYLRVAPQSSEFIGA
Experimental: as §1, §2, §3, §4, §5

[5] = target: T5, various mutants of kinase EGFR (BaF3 cell lines stably transfected with kinase) (Homo sapiens, UniProt P00533, L858R/T790M); conditions: BaF3 cells stably transfected with EGFR L858R/T790M, read-out: IC50, growth inhibition, L858R/T790M
T5 construct: expressed in transfected cells; host or cells: BaF3
T5 sequence (P00533 25-1210 T790M/L858R): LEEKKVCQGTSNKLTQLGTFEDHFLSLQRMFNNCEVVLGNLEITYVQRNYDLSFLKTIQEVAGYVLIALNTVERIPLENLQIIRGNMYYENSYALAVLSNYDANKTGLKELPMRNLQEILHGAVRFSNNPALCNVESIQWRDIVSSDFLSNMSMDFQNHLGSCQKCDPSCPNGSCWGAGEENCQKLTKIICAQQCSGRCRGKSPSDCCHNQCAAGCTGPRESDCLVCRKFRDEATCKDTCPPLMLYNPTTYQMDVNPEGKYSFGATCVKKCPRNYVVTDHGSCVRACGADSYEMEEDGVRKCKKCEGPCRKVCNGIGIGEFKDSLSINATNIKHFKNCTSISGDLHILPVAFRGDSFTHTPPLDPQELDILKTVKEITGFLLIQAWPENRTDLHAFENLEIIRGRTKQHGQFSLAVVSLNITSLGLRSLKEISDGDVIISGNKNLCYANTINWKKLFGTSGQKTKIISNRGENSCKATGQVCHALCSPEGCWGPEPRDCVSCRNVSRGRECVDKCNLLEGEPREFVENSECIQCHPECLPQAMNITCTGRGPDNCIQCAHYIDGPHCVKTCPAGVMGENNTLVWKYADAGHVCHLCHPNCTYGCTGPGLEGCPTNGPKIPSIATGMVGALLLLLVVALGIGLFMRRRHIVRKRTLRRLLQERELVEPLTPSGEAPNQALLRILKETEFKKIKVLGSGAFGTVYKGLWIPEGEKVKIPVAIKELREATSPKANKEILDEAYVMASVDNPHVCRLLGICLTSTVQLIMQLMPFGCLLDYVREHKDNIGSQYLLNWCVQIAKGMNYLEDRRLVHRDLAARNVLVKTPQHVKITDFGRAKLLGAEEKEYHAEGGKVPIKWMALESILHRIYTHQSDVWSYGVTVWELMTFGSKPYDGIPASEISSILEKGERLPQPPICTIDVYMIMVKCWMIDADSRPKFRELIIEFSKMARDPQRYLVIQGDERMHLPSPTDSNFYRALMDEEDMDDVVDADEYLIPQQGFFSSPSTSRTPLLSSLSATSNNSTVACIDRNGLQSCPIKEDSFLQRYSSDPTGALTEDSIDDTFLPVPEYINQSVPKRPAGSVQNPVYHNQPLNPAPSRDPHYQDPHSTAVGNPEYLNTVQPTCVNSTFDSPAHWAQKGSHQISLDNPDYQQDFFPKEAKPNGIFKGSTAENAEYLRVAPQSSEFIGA
Experimental: as §1, §2, §3, §4, §5

[6] = target: T6, various mutants of kinase EGFR (BaF3 cell lines stably transfected with kinase) (Homo sapiens, UniProt P00533, L858R); conditions: BaF3 cells stably transfected with EGFR L858R, read-out: IC50, growth inhibition, L858R
T6 construct: expressed in transfected cells; host or cells: BaF3
T6 sequence (P00533 25-1210 L858R): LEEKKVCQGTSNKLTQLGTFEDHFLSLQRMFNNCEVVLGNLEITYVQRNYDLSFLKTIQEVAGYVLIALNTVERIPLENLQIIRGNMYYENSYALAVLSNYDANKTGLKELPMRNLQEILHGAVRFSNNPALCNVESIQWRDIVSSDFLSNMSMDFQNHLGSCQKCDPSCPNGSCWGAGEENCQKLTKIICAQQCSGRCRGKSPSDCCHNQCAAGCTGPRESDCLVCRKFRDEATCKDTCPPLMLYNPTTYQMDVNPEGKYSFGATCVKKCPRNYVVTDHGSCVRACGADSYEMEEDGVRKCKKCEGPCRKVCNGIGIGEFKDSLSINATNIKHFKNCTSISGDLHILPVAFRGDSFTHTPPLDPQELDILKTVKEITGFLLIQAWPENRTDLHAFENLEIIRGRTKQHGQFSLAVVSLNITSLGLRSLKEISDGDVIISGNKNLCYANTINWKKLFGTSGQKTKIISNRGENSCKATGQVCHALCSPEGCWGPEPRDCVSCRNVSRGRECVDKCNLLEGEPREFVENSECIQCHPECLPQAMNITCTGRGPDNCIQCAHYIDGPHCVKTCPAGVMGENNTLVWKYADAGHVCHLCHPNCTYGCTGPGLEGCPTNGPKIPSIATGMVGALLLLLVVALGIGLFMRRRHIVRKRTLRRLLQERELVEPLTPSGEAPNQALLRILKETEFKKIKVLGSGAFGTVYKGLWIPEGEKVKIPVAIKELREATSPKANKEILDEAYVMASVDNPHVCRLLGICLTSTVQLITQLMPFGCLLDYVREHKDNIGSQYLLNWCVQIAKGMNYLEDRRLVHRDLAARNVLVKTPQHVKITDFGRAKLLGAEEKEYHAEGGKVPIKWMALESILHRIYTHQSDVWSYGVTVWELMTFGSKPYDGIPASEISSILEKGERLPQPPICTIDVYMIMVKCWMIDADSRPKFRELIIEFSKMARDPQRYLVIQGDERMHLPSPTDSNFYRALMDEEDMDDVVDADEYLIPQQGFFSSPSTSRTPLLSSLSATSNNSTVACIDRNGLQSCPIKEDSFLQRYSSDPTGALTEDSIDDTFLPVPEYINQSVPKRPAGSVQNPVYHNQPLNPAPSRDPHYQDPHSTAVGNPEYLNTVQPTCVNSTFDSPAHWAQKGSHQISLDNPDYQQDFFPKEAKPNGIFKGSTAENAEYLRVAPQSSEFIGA
Experimental: as §1, §2, §3, §4, §5

Row | Structure (SMILES) | IC50 [1] | IC50 [2] | IC50 [3] | IC50 [4] | IC50 [5] | IC50 [6]
1 | COc1nc(N2CCC(N3CCN(C)CC3)CC2)ccc1Nc1ncc(Br)c(Nc2ccc3nccnc3c2N(C)S(C)(=O)=O)n1 [Compound I-4] | 50 to 500 nM | 50 to 500 nM | ≤ 50 nM | 50 to 500 nM | 50 to 500 nM | 50 to 500 nM
2 | CN1CCN(C2CCN(c3ccc(Nc4ncc(Br)c(Nc5ccc6nccnc6c5N(C)S(C)(=O)=O)n4)c(OC(F)(F)F)c3)CC2)CC1 [Compound I-7] | 50 to 500 nM | 50 to 500 nM | ≤ 50 nM | 50 to 500 nM | 50 to 500 nM | 50 to 500 nM
3 | COc1cc(N2CCC(N3CCN(C)CC3)CC2)c(Cc2ccccc2)cc1Nc1ncc(Br)c(Nc2ccc3nccnc3c2N(C)S(C)(=O)=O)n1 [Compound I-11] | 500 to 2500 nM | 500 to 2500 nM | 500 to 2500 nM | 500 to 2500 nM | 500 to 2500 nM | 50 to 500 nM
4 | CCc1cc(Nc2ncc(Br)c(Nc3ccc4nccnc4c3N(C)S(C)(=O)=O)n2)c(OC)cc1N1CCC(N(C)C)CC1 [Compound I-16] | ≤ 50 nM | ≤ 50 nM | ≤ 50 nM | ≤ 50 nM | ≤ 50 nM | ≤ 50 nM
5 | CCc1cc(Nc2ncc(Br)c(Nc3ccc4nccnc4c3N(C)S(C)(=O)=O)n2)c(OC)cc1N1CCC(N(C)C)C1 (stereo not drawn) [Compound I-17] | ≤ 50 nM | ≤ 50 nM | ≤ 50 nM | ≤ 50 nM | ≤ 50 nM | ≤ 50 nM
6 | COc1cc(N2CCC(N3CCN(C)CC3)CC2)ccc1Nc1ncc(Cl)c(Nc2ccc3nccnc3c2N(C)S(C)(=O)=O)n1 [Compound I-18] | 50 to 500 nM | 50 to 500 nM | 50 to 500 nM | 50 to 500 nM | ≤ 50 nM | 50 to 500 nM
7 | COc1cc(N2CCC(N3CCN(C)CC3)CC2)c(C)cc1Nc1ncc(Cl)c(Nc2ccc3nccnc3c2N(C)S(C)(=O)=O)n1 [Compound I-19] | ≤ 50 nM | ≤ 50 nM | ≤ 50 nM | ≤ 50 nM | ≤ 50 nM | ≤ 50 nM
8 | CCc1cc(Nc2ncc(Cl)c(Nc3ccc4nccnc4c3N(C)S(C)(=O)=O)n2)c(OC)cc1N1CCC(N2CCN(C)CC2)CC1 [Compound I-20] | ≤ 50 nM | ≤ 50 nM | ≤ 50 nM | ≤ 50 nM | ≤ 50 nM | ≤ 50 nM
9 | CCc1cc(Nc2ncc(Cl)c(Nc3ccc4nccnc4c3N(C)S(C)(=O)=O)n2)c(OC)nc1N1CCC(N2CCN(C)CC2)CC1 [Compound I-21] | ≤ 50 nM | ≤ 50 nM | ≤ 50 nM | 50 to 500 nM | ≤ 50 nM | ≤ 50 nM
10 | CCc1cc(Nc2ncc(Cl)c(Nc3ccc4nccnc4c3N(C)S(C)(=O)=O)n2)c(OC(F)(F)F)cc1N1CCC(N2CCN(C)CC2)CC1 [Compound I-22] | ≤ 50 nM | ≤ 50 nM | ≤ 50 nM | 50 to 500 nM | 50 to 500 nM | 50 to 500 nM
11 | C=Cc1cc(Nc2ncc(Cl)c(Nc3ccc4nccnc4c3N(C)S(C)(=O)=O)n2)c(OC(F)(F)F)cc1N1CCC(N2CCN(C)CC2)CC1 [Compound I-23] | ≤ 50 nM | ≤ 50 nM | ≤ 50 nM | ≤ 50 nM | ≤ 50 nM | ≤ 50 nM
12 | COc1cc(N2CCC(N3CCN(C)CC3)CC2)ccc1Nc1ncc(F)c(Nc2ccc3nccnc3c2N(C)S(C)(=O)=O)n1 [Compound I-24] | 50 to 500 nM | 50 to 500 nM | 50 to 500 nM | 50 to 500 nM | 50 to 500 nM | 50 to 500 nM
13 | COc1cc(N2CCC(N3CCN(C)CC3)CC2)c(C)cc1Nc1ncc(F)c(Nc2ccc3nccnc3c2N(C)S(C)(=O)=O)n1 [Compound I-25] | ≤ 50 nM | 50 to 500 nM | ≤ 50 nM | ≤ 50 nM | ≤ 50 nM | ≤ 50 nM
14 | CCc1cc(Nc2ncc(F)c(Nc3ccc4nccnc4c3N(C)S(C)(=O)=O)n2)c(OC)cc1N1CCC(N2CCN(C)CC2)CC1 [Compound I-26] | ≤ 50 nM | ≤ 50 nM | ≤ 50 nM | ≤ 50 nM | ≤ 50 nM | ≤ 50 nM
15 | COc1cc(N2CCC(N3CCN(C)CC3)CC2)ccc1Nc1ncc(C#N)c(Nc2ccc3nccnc3c2N(C)S(C)(=O)=O)n1 [Compound I-27] | 500 to 2500 nM | 500 to 2500 nM | 500 to 2500 nM | 500 to 2500 nM | 500 to 2500 nM | 50 to 500 nM

Now from value to compound:

Row | IC50 [1] | IC50 [2] | IC50 [3] | IC50 [4] | IC50 [5] | IC50 [6] | Structure (SMILES)
16 | ≤ 50 nM | ≤ 50 nM | ≤ 50 nM | ≤ 50 nM | ≤ 50 nM | ≤ 50 nM | COc1cc(N2CCC(N3CCN(C)CC3)CC2)ccc1Nc1ncc(Br)c(Nc2ccc3nccnc3c2N(C)S(C)(=O)=O)n1 [Compound I-1]
17 | ≤ 50 nM | ≤ 50 nM | ≤ 50 nM | ≤ 50 nM | ≤ 50 nM | ≤ 50 nM | COc1cc(N2CCC(N3CCN(C)CC3)CC2)c(C)cc1Nc1ncc(Br)c(Nc2ccc3nccnc3c2N(C)S(C)(=O)=O)n1 [Compound I-2]
18 | ≤ 50 nM | ≤ 50 nM | ≤ 50 nM | ≤ 50 nM | ≤ 50 nM | ≤ 50 nM | CCc1cc(Nc2ncc(Br)c(Nc3ccc4nccnc4c3N(C)S(C)(=O)=O)n2)c(OC)cc1N1CCC(N2CCN(C)CC2)CC1 [Compound I-3]
19 | ≤ 50 nM | ≤ 50 nM | ≤ 50 nM | 50 to 500 nM | ≤ 50 nM | ≤ 50 nM | CCc1cc(Nc2ncc(Br)c(Nc3ccc4nccnc4c3N(C)S(C)(=O)=O)n2)c(OC)nc1N1CCC(N2CCN(C)CC2)CC1 [Compound I-6]
20 | ≤ 50 nM | ≤ 50 nM | ≤ 50 nM | ≤ 50 nM | ≤ 50 nM | ≤ 50 nM | C=Cc1cc(Nc2ncc(Br)c(Nc3ccc4nccnc4c3N(C)S(C)(=O)=O)n2)c(OC(F)(F)F)cc1N1CCC(N2CCN(C)CC2)CC1 [Compound I-9]
21 | ≤ 50 nM | ≤ 50 nM | ≤ 50 nM | 50 to 500 nM | ≤ 50 nM | ≤ 50 nM | COc1cc(N2CCC(N3CCN(C)CC3)CC2)c(CC2CC2)cc1Nc1ncc(Br)c(Nc2ccc3nccnc3c2N(C)S(C)(=O)=O)n1 [Compound I-10]
22 | ≤ 50 nM | ≤ 50 nM | ≤ 50 nM | 50 to 500 nM | ≤ 50 nM | ≤ 50 nM | COc1cc(N2CCN(C)CC2)c(C)cc1Nc1ncc(Br)c(Nc2ccc3nccnc3c2N(C)S(C)(=O)=O)n1 [Compound I-12]
23 | ≤ 50 nM | ≤ 50 nM | ≤ 50 nM | ≤ 50 nM | ≤ 50 nM | ≤ 50 nM | COc1cc(N2CCC(N(C)C)CC2)c(C)cc1Nc1ncc(Br)c(Nc2ccc3nccnc3c2N(C)S(C)(=O)=O)n1 [Compound I-13]
24 | ≤ 50 nM | ≤ 50 nM | ≤ 50 nM | 50 to 500 nM | ≤ 50 nM | ≤ 50 nM | COc1cc(N2CCC(N(C)C)C2)c(C)cc1Nc1ncc(Br)c(Nc2ccc3nccnc3c2N(C)S(C)(=O)=O)n1 (stereo not drawn) [Compound I-14]
25 | ≤ 50 nM | ≤ 50 nM | ≤ 50 nM | ≤ 50 nM | ≤ 50 nM | ≤ 50 nM | CCc1cc(Nc2ncc(Br)c(Nc3ccc4nccnc4c3N(C)S(C)(=O)=O)n2)c(OC)cc1N1CCN(C)CC1 [Compound I-15]
